From the METLIN SMRT retention time set (Domingo-Almenara et al. 2019) come the findings set out here.

A short description of this data set: gradient 5% acetonitrile 3 min, to 50% in 2 min, to 85% in 15 min, held 3 min, 100 µL/min. To be noted: column: Zorbax Extend-C18 2.1 x 50 mm; eluents: water / acetonitrile, 0.1% formic acid. The method, boiled down: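 In both positive and negative ionization mode, a quadrupole time-of-flight mass spectrometer coupled to HPLC analyzed pure standards run in mixtures of ~100 molecules. The Zorbax Extend-C18 column (2.1 × 50 mm, 1.8 μm) was operated at 100 μL/min with water and acetonitrile, each containing 0.1% formic acid. The dead volume was 40 μL and the dwell volume 900 μL. Retention time came from adduct peaks that were computationally picked and individually inspected by hand.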
As to `CCOC(=O)Cc1ccc(NC(=O)N2CCN(c3ccc(=O)n(-c4ccc(F)cc4)n3)CC2)cc1`, the RP-LC retention time was found to be 789 s.
As to `CCc1ccc(N2CC(c3noc(-c4cc(OC)cc(OC)c4)n3)CC2=O)cc1` (centres undefined), the RP-LC retention time is 1100 s.
In the case of `O=C(NC1CCN(c2cc(-c3cccs3)[nH]n2)C1)c1cccc(Cl)c1` (centres undefined) it was 719 s.
In turn, `O=C(CSc1nc2ccccc2o1)NCCn1nc(-c2cccs2)ccc1=O` registered an RP-LC retention time of 718 s.
For `COc1ccc(-c2ncc3c(n2)CCN(C(=O)Nc2ccc(C)cc2Cl)C3)cc1`, the RP-LC retention time came out at 1020 s.
`CC(C)c1csc(-c2csc(S(=O)(=O)NCc3ccc(F)cc3)c2)n1` returned an RP-LC retention time of 1120 s.
To `CCC(CO)Nc1nc2ccc(Cl)cc2c2ccccc12` (centres undefined) belongs 732 s; to `COC(=O)c1c(NCC(C)C)c2cc(F)ccc2[nH]c1=O`, 734 s.
To `O=C1NC2(CCN(C(=O)c3ccccc3)CC2)N=C1c1ccc(Cl)cc1` belongs 842 s; to `O=C(c1ccc2nsnc2c1)N1CCN(c2ccc(F)cc2)CC1`, 811 s; to `Cc1csc(-c2cn(CC(=O)Nc3ccc(C)c(C)c3)cn2)n1`, 722 s.
As to `CC1=C(c2ccc(C(C)C)cc2)S(=O)(=O)N=C1N1CCC(NC(=O)CCC(C)C)CC1`, the RP-LC retention time was 1020 s.
To `COc1cc(-c2noc(C3CC(=O)N(c4ccc(C)c(F)c4)C3)n2)cc(OC)c1OC` (centres undefined) belongs 976 s; to `COc1ccc(C2CCN(S(C)(=O)=O)CC2)cc1`, 845 s; to `CC1CCN(S(=O)(=O)c2ccc3nn(Cc4ccccc4F)c(=O)n3c2)CC1`, 653 s.
Consider `CCn1nccc1-c1cccc(-c2noc(C(C)NC(=O)c3ccccc3)n2)c1` (centres undefined), for which the RP-LC retention time was found to be 929 s.
In the case of `CCOC(=O)COC(=O)c1cn(-c2ccc(OCC)cc2)c(=O)c2ccccc12` it was 1070 s; in that of `CC(C)CCNC(=O)Cn1ccn2nc(-c3ccccc3)c(CO)c2c1=O`, 758 s.
To `O=C(NCCSC12CC3CC(CC(C3)C1)C2)c1ccc(CN2C(=O)CCn3nccc32)cc1` belongs 645 s; to `CCS(=O)(=O)N1CCCc2cc(C(=O)Nc3cc(OC)c(Cl)cc3OC)ccc21`, 1040 s.
To `O=C(NCCN1CCCCC1)C1CCCN(c2cnc3nccnc3c2)C1` (centres undefined) belongs 562 s; to `COc1ccc2[nH]c(=O)c(CCC(=O)NCCN(C)C3CCCCC3)cc2c1`, 598 s.
With `CCN(CC)C(=O)c1ccc2nc(-c3ccc(C)cc3)cn2c1`, the RP-LC retention time was 649 s.
For the compound `CCCCNC(=O)C1CCCN(C(=O)Nc2ccc(NC(=O)Nc3ccccc3)cc2)C1` (centres undefined), the RP-LC retention time came out at 812 s.
`CCOc1ccc(NC(=O)c2cc3c(=O)n(CC(C)C)c4ccccc4n3n2)cc1` displayed an RP-LC retention time of 1150 s.
In the case of `COc1ccc(-c2cc3nn(CC(=O)NCc4ccc(F)cc4)c(=O)n3c(C)n2)cc1` it was 880 s.
To `COc1ccc2[nH]cc(CCNC(=O)CC3CCN(S(=O)(=O)c4ccc(Cl)s4)CC3)c2c1` belongs 905 s; to `Cc1ccc(C)c(-c2nc(-c3cccc(-c4ccnn4C)c3)no2)c1`, 1110 s; to `Brc1ccc(-c2nc(-c3ccn4cnnc4c3)no2)cc1`, 929 s.
`Cc1ccc(C)c(N2C(=O)CC(N3CCC(C(N)=O)CC3)C2=O)c1` (centres undefined) showed an RP-LC retention time of 601 s.
In the case of `Cc1cc(N2CCN(C(=O)Nc3cccc(C(F)(F)F)c3)CC2)nc(N2CCOCC2)n1` it was 675 s; in that of `CC(C)C[C@@H](C(=O)N[C@H](C(=O)OC1CCCC1)c1ccccc1)[C@H](O)C(=O)NO`, 822 s.
To `COc1ccc(-c2nc3cnccn3c2Nc2cccc(Cl)c2)cc1OC` belongs 817 s; to `N#Cc1cccc(C(=O)NC2CCN(c3ccc(F)cc3)C2=O)c1` (centres undefined), 768 s.
To `Cc1ccccc1CNC(=O)c1cn(-c2ccc(-c3nc(C4CC4)no3)cn2)cn1` belongs 973 s; to `CCN1CCN(c2cc(-c3nc(-c4cccc(F)c4)no3)c3ccccc3n2)CC1`, 821 s; to `Cc1oc(C2CCN(C(=O)COc3ccccc3)CC2)nc1C(=O)N1CCCCC1`, 796 s.
Consider `COc1cc(OC)c(-n2nnc(-c3nsc(Nc4ccc(OC)c(OC)c4)n3)c2C)cc1Cl`, for which the RP-LC retention time was 928 s.
To `O=C(c1csc(-c2ccc(N3CCCC3)nc2)n1)N1CCCCC1` belongs 613 s; to `COc1ccc(OC)c(COCC(O)CN2CCN(Cc3ccccc3)CC2)c1` (centres undefined), 557 s.
To `CC(C)c1nc2cccnc2n1CCN1CCN(C(=O)Nc2ccc(Br)cc2F)CC1` belongs 632 s; to `O=C(c1ccc2c(c1)OCO2)N1CCC(F)(F)C(COCC2CC2)C1` (centres undefined), 933 s; to `Cc1ccccc1C(=O)CC1(O)C(=O)Nc2ccccc21` (centres undefined), 709 s.
To `CC(=O)NCc1nc(-c2ccc3c(c2)nc(C)c(=O)n3C2CCCC2)no1` belongs 707 s; to `Cc1cc(NC(=O)c2[nH]c(C)c(S(=O)(=O)N3CCCCC3)c2C)ccc1Br`, 1110 s.
In turn, `CCc1ccc(N2C(=O)CN(S(C)(=O)=O)CC2(C)C(=O)NCc2ccccc2)cc1` (centres undefined) gave an RP-LC retention time of 809 s.
Turning to `CCNc1cc(N2CCCC(CCC(=O)N3CCCN(c4ncccn4)CC3)C2)ncn1` (centres undefined), the RP-LC retention time was found to be 608 s.
For the compound `Cc1cc2nn(CC(=O)Nc3cc(F)cc(F)c3)c(=O)n2c(Nc2ccc(F)c(C)c2)n1`, the RP-LC retention time came out at 1070 s.
In the case of `CC1CCN(C(=O)C2=NN(C)c3ccccc3S2(=O)=O)CC1` it was 799 s.
In the case of `Cc1ccnc(C(=O)Nc2cccc(Cl)c2Cl)n1` it was 866 s; in that of `O=C(CCNc1c(-c2ccccc2)nc2cnccn12)NCc1cccs1`, 662 s.
To `O=C(c1cc(F)ccc1Cl)N1CCN(c2cc(-c3ccc(F)cc3)[nH]n2)CC1` belongs 847 s; to `COC(=O)c1ccc(C(=O)NCCCC(=O)Nc2cccc3cccnc23)cc1`, 731 s.
On to `Cn1c(N2CCCN(C(=O)COc3ccc(Cl)cc3)CC2)cc(=O)n(C)c1=O`, for which the RP-LC retention time came to 658 s.
In the case of `Cc1ccc(-c2nc3ccccn3c2Nc2ccc3c(c2)OCO3)cc1` it was 694 s.
To `Cn1c(=O)cc(SCC(=O)N2CCN(c3ccccn3)CC2)c2ccc(Cl)cc21` belongs 639 s.
To `CN(C)c1cccc(C(=O)N2CCN(C(=O)c3nnn4c3COC(c3ccccc3)C4)CC2)c1` (centres undefined) belongs 799 s.
`CC(NC(=O)c1sc2ncccc2c1-n1cccc1)c1ccc(F)cc1` (centres undefined) yielded an RP-LC retention time of 1070 s.
In the case of `Cc1ccc(S(=O)(=O)N2CCC(CCNC(=O)NCCC(C)C)CC2)cc1` it was 715 s.
As for `COc1ccc(-c2noc(C3CCCN3C(=O)Nc3ccc4c(c3)OCO4)n2)cc1` (centres undefined), the RP-LC retention time is 884 s.
In the case of `CCOCCCNCc1ccc(-c2ccc(F)cc2)o1` it was 672 s; in that of `CC(C)(C)c1noc(-c2ccc(-n3cnc(C(=O)NCc4ccccc4)c3)nc2)n1`, 1060 s; in that of `Cc1ccc(NS(=O)(=O)c2cc3n(c2)CCN(CC(C)C)C3=O)cc1`, 794 s.
In the case of `CCn1c(=O)c(NCc2cccc(Cl)c2)nc2ccncc21` it was 649 s.
To `O=C(NC1CCN(c2nnc3ccc(Cl)cn23)CC1)c1ccsc1` belongs 602 s.
`Cc1ccc2c(Nc3cccc(C(C)C)c3)c(C(=O)N3CCCC(C)C3)cnc2n1` (centres undefined) came in with an RP-LC retention time of 722 s.
`Cc1ccc(CN2CCC(CNC(=O)c3noc(C)c3Cn3nc(C)cc3C)C2)cc1` (centres undefined) returned an RP-LC retention time of 659 s.
`O=c1ccc(-c2ccc3c(c2)OCO3)nn1Cc1nc(-c2ccc(F)c(Br)c2)no1` had an RP-LC retention time of 1100 s.
To `CCCn1cc(S(=O)(=O)Nc2ccc(F)cc2Cl)c2cccnc21` belongs 989 s.
To `Brc1ccccc1Cc1nc(-c2ccc3nncn3c2)no1` belongs 724 s.
`CCc1cccc(NC(=O)C2CCN(S(=O)(=O)c3ccc4c(c3)sc(=O)n4C)CC2)c1` came in with an RP-LC retention time of 862 s.
To `COc1ccc(C2=NC3(CCN(C(C)C)CC3)NC(c3cccc(OC)c3O)C2)cc1OC` (centres undefined) belongs 575 s.
In the case of `CCCNC(=O)c1ccc(-c2nc3cc(NS(=O)(=O)c4cccs4)ccc3n2C)cc1` it was 662 s.
The compound `Cc1cc(C)n(CCNC(=O)CSc2ccc(F)cc2)n1` yielded an RP-LC retention time of 675 s.
Regarding `O=C(c1c[nH]c2ncccc12)N1CCCC1`, the RP-LC retention time was found to be 589 s.
To `Cc1nc(C)c(C(=O)N2CC[C@H](CO)[C@H](NC(=O)C3CC3)C2)s1` belongs 573 s; to `Cc1cc2c(cc1S(=O)(=O)N1CCCC1C(=O)NCc1ccccc1Cl)OC(C)C(=O)N2` (centres undefined), 812 s.
On to `Cc1cc(C)c(S(=O)(=O)N2CCCC(C(=O)Nc3ccccc3F)C2)c(C)c1` (centres undefined), for which the RP-LC retention time came to 1090 s.
As to `COc1ccccc1C(=O)NC1(C(F)(F)F)C(=O)N(CC2CCCO2)C2=C1C(=O)CC(C)(C)C2` (centres undefined), the RP-LC retention time is 986 s.
